Source: patent US20220112479A1, “COMPOUNDS STABILIZING AMYLASES IN LIQUIDS” (BASF SE, priority 2018, published 2022)

Tests used:
Assay type in all cases: biochemical
[1] = tested on: Amy3=Stainzyme Plus L (12L); experiment: amylase storage stability in liquid formulation (pNP release from Ethyliden-blocked-pNPG7); details: base formulation II., 1.5 wt % component (a), storage at 37° C.
Experimental: The storage stability of amylase was assessed at 37° C.
(§1) Base test formulations were manufactured by making base formulations I to V by mixing the components according to Table 1.
Amylases used: Amy1=Stainzyme, Amy2=Amplify, Amy3=Stainzyme Plus L (12L)
(§2) The respective component (a) or comparative compound was added, if applicable, to the respective base formulation in amounts as indicated in Table 1.
The amount of amylase as provided in Table 1 refers to active protein.
(§3) Water was added to accomplish the balance to 100.
Amylase activity at certain points in time as indicated in Table 2 was measured quantitatively by the release of the chromophore para-nitrophenol (pNP) from the substrate (Ethyliden-blocked-pNPG7, Roche Applied Science 10880078103). The alpha-amylase degrades the substrate into smaller molecules and α-glucosidase (Roche Applied Science 11626329103), which is present in excess compared to the amylase, process these smaller products until pNP is released; the release of pNP, measured via an increase of absorption at 405 nm, is directly proportional to the amylase activity of the sample. Amylase standard: Termamyl 120 L (Sigma 3403).
The amylolytic activity values provided were calculated referring to the value determined in the reference formulation at the time 0.
The nomenclature of formulations is as follows: the Roman number before the full stop characterizes the base formulation, the Arabian number the type of compound (A.# compound according to invention (component (a)); B.# comparative compound).

[2] = tested on: Amy1=Stainzyme; experiment: as above; design: key: % of activity in reference formulation at time 0; details: base formulation IV., 2.0 wt % component (a), storage at 37° C.
Experimental: (§4) The storage stability of amylase was assessed at 37° C. Base test formulations were manufactured by making base formulations I to V by mixing the components according to Table 1. Amylases used: Amy1=Stainzyme, Amy2=Amplify, Amy3=Stainzyme Plus L (12L) The respective component (a) or comparative compound was added, if applicable, to the respective base formulation in amounts as indicated in Table 1. The amount of amylase as provided in Table 1 refers to active protein. Water was added to accomplish the balance to 100. […] Amylase activity at certain points in time as indicated in Table 2 was measured quantitatively by the release of the chromophore para-nitrophenol (pNP) from the substrate ([…]-blocked-pNPG7, Roche Applied Science 10880078103). The alpha-amylase degrades the substrate into smaller molecules and α-glucosidase (Roche Applied Science 11626329103), which is present in excess compared to the amylase, process these smaller products until pNP is released; the release of pNP, measured via an increase of absorption at 405 nm, is directly proportional to the amylase activity of the sample. Amylase standard: […] 120 L (Sigma 3403). […] The amylolytic activity values provided were calculated referring to the value determined in the reference formulation at the time 0. The nomenclature of formulations is as follows: the Roman number before the full stop characterizes the base formulation, the Arabian number the type of compound (A.# compound according to invention (component (a)); B.# comparative compound).

[3] = tested on: Amy2=Amplify; experiment: as above; design: key: % of activity in reference formulation at time 0; details: base formulation V., 2.0 wt % component (a), storage at 37° C.
Experimental: as §4

[4] = target: T1, Savinase Ultra 16.0L (Lederbergia lenta, UniProt P29600); experiment: protease storage stability in liquid formulation (Suc-AAPF-pNA substrate); details: storage at 37° C.
T1 construct: purchased Sigma-Aldrich
T1 sequence (P29600 1-269): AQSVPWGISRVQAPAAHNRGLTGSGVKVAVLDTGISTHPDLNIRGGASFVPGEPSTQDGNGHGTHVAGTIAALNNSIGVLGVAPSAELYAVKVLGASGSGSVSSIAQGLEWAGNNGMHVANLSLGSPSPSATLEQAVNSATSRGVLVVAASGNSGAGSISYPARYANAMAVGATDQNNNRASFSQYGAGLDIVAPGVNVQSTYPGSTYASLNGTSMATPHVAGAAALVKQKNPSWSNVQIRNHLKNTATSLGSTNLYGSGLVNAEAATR
Experimental: as §1
Protease used: (S) Savinase Ultra 16.0L (CAS-No. 9014-01-1, EC-No. 232-752-2) was purchased from Sigma-Aldrich
as §2
The amount of protease as provided in Table 1 refers to active protein.
as §3
Protease activity at certain points in time as indicated in Table 3 was be determined by employing Succinyl-Ala-Ala-Pro-Phe-p-nitroanilide (Suc-AAPF-pNA, short AAPF) as substrate. pNA is cleaved from the substrate molecule by proteolytic cleavage, resulting in release of yellow color of free pNA which was determined by measuring […]. Measurements were done at 20° C.
The proteolytic activity values provided in Table 3 were calculated referring to the value determined in the reference formulation at the time 0.
The nomenclature of formulations is as follows: the Roman number before the full stop characterizes the base formulation, the Arabian number the type of salt (A.#inventive salt (component (a)); B.# comparative compound). Zero (“0”): no salt, but diethylene glycol.

Q: `O=C(CC(O)(CC(=O)OCc1ccccc1)C(=O)OCc1ccccc1)OCc1ccccc1` [A.8, Tribenzylcitrate] was tested. Which “amylase activity, referring to reference formulation at time 0” value (shortened to “amylase activity, referring”) ([1]; 3 d) did it give?
A: Its value is 100.

Q: And the “amylase activity, referring” value ([1]; 7 d)?
A: The value was 95.

Q: And the “amylase activity, referring” value ([1]; 14 d)?
A: The value was 90.

Q: And the “amylase activity, referring” value ([1]; 21 d)?
A: Its value is 83.

Q: And the “amylase activity, referring” value ([1]; 28 d)?
A: The value was 81.

Q: And the “amylase activity, referring” value ([1]; 42 d)?
A: Its value is 71.

Q: What about the “amylase activity, referring” value ([1]; T0) of the same molecule?
A: Its value is 99.

Q: And the “amylase activity, referring” value ([2]; 3 d)?
A: The value was 96.

Q: And the “amylase activity, referring” value ([2]; 7 d)?
A: The value was 92.

Q: What about the “amylase activity, referring” value ([2]; 14 d) of the same molecule?
A: The value was 86.

Q: What about the “amylase activity, referring” value ([2]; 21 d) of the same molecule?
A: Its value is 81.

Q: And the “amylase activity, referring” value ([2]; 28 d)?
A: The value was 70.

Q: And the “amylase activity, referring” value ([2]; 42 d)?
A: Its value is 59.

Q: What about the “amylase activity, referring” value ([2]; T0) of the same molecule?
A: The value was 98.

Q: What about the “amylase activity, referring” value ([3]; 3 d) of the same molecule?
A: Its value is 93.

Q: What about the “amylase activity, referring” value ([3]; 7 d) of the same molecule?
A: The value was 86.

Q: And the “amylase activity, referring” value ([3]; 14 d)?
A: The value was 80.

Q: And the “amylase activity, referring” value ([3]; 21 d)?
A: Its value is 77.

Q: What about the “amylase activity, referring” value ([3]; 28 d) of the same molecule?
A: Its value is 66.

Q: What about the “amylase activity, referring” value ([3]; 42 d) of the same molecule?
A: Its value is 59.

Q: And the “amylase activity, referring” value ([3]; T0)?
A: Its value is 98.

Q: And the “protease activity, referring to reference formulation at time 0” value (shortened to “protease activity, referring”) ([4]; base formulation II., 1.5 wt % component (a), 3 d)?
A: The value was 94.

Q: And the “protease activity, referring” value ([4]; base formulation II., 1.5 wt % component (a), 7 d)?
A: The value was 93.

Q: What about the “protease activity, referring” value ([4]; base formulation II., 1.5 wt % component (a), 14 d) of the same molecule?
A: The value was 90.

Q: What about the “protease activity, referring” value ([4]; base formulation II., 1.5 wt % component (a), 21 d) of the same molecule?
A: Its value is 87.

Q: What about the “protease activity, referring” value ([4]; base formulation II., 1.5 wt % component (a), 28 d) of the same molecule?
A: Its value is 83.

Q: What about the “protease activity, referring” value ([4]; base formulation II., 1.5 wt % component (a), 42 d) of the same molecule?
A: Its value is 75.

Q: What about the “protease activity, referring” value ([4]; base formulation II., 1.5 wt % component (a), T0) of the same molecule?
A: Its value is 100.

Q: And the “protease activity, referring” value ([4]; base formulation IV., 2.0 wt % component (a), 3 d)?
A: The value was 96.

Q: And the “protease activity, referring” value ([4]; base formulation IV., 2.0 wt % component (a), 7 d)?
A: Its value is 93.

Q: What about the “protease activity, referring” value ([4]; base formulation IV., 2.0 wt % component (a), 14 d) of the same molecule?
A: The value was 88.

Q: And the “protease activity, referring” value ([4]; base formulation IV., 2.0 wt % component (a), 21 d)?
A: Its value is 83.

Q: And the “protease activity, referring” value ([4]; base formulation IV., 2.0 wt % component (a), 28 d)?
A: Its value is 75.

Q: What about the “protease activity, referring” value ([4]; base formulation IV., 2.0 wt % component (a), 42 d) of the same molecule?
A: The value was 68.

Q: And the “protease activity, referring” value ([4]; base formulation IV., 2.0 wt % component (a), T0)?
A: The value was 98.

Q: What about the “protease activity, referring” value ([4]; base formulation V., 2.0 wt % component (a), 3 d) of the same molecule?
A: Its value is 96.

Q: What about the “protease activity, referring” value ([4]; base formulation V., 2.0 wt % component (a), 7 d) of the same molecule?
A: Its value is 92.

Q: What about the “protease activity, referring” value ([4]; base formulation V., 2.0 wt % component (a), 14 d) of the same molecule?
A: Its value is 86.

Q: What about the “protease activity, referring” value ([4]; base formulation V., 2.0 wt % component (a), 21 d) of the same molecule?
A: The value was 82.

Q: What about the “protease activity, referring” value ([4]; base formulation V., 2.0 wt % component (a), 28 d) of the same molecule?
A: The value was 77.

Q: What about the “protease activity, referring” value ([4]; base formulation V., 2.0 wt % component (a), 42 d) of the same molecule?
A: Its value is 69.

Q: And the “protease activity, referring” value ([4]; base formulation V., 2.0 wt % component (a), T0)?
A: The value was 100.
